# Test results published in patent US20260224549A1, “COMPOUNDS, COMPOSITIONS, AND METHODS FOR TREATING, AMELIORATING, AND/OR PREVENTING PAIN” (priority 2023, published 2026).
# Where “and” joins values, the source holds several entries; their conditions need not be identical. Identical values can stand only once. Like-named read-outs stand apart in the source and are kept apart here.
# Columns and labels:
# [1] = in vivo; conditions: dog, in vivo
# Description: (§1) The chosen dose can be higher, as long as within the pharmacological range.
# [2] = system: dog; test: in vivo
# Description: as §1
# [3] = Static vapor sorption studies; format: physicochemical; conditions: Panel: Static humidity; 7 experiments
# Description: Static Vapor Sorption Studies
# Static vapor sorption studies were done in hermetic humidity chambers using saturated salts, or environmental humidity chambers to control the temperature and humidity. Data collected during dynamic vapor sorption studies often are not at thermodynamic equilibrium. To gain a better understanding of the water uptake and the critical humidity level of the API, samples of the starting material (i.e., Form A) were monitored in static humidity chambers to allow the sample to equilibrate with atmospheric moisture.
# In these studies, water vapor sorption was determined gravimetrically by storing samples in open aluminum dishes. Compound I diphosphate salt lot was used for this study. Samples were stored at 7 different humidity levels at ambient temperature (Table 19). Approximately 50 mg of Form A was staged at each humidity condition. The samples were weighed before placing them in the chamber and then re-weighed after 3 weeks. After re-weighing, the samples were immediately analyzed by XRD to determine whether a change in form had occurred.
# The sample stored at 11% RH was an outlier and was therefore omitted from the final isotherm plot. The static isotherm plot is roughly consistent with the DVS isotherm plot (FIG. 12F) with a large moisture uptake at around 40% RH and a maximum uptake between 4 and 5 weight percent.
# [4] = Method: The screen was performed using solvent recrystallizations using different conditions, as well as non-competitive slurry experiments, to manipulate the solid-state form of the test material. Samples generated during the study were characterized using differential scanning calorimetry (DSC), thermogravimetric analysis (TGA), powder X-ray diffraction (XRD), and dynamic vapor sorption (DVS).
# To perform the solvent-based portion of the polymorph screen, the test material was recrystallized using various solvents under approximately 78 different crystal growth conditions. The scale of the recrystallization experiments was approximately 1 to 20 mL. The method of changing the crystal growth conditions was by using single and binary arrays of solvent mixtures. The saturation temperature, growth temperature, and evaporation rate were also varied to create additional differences in crystal growth conditions.
# Saturated solutions were prepared by agitating excess test material in contact with the various solvent systems at the saturation temperature. The mother liquor was separated from the residual solids by filtration if solids remained in the solution. The mother liquor was then heated above the saturation temperature to dissolve any remaining solids. The temperature of each solution was then adjusted to the growth temperature and a controlled nitrogen shear flow was introduced to begin solvent evaporation.
# In addition to the solvent recrystallization experiments, non-competitive slurry experiments were performed to search for new solid-state forms. These experiments rely on solubility differences of different polymorphic form, if the compound exists in different polymorphic forms. As such, only polymorphs having a lower solubility (i.e., increased stability) than the original crystalline form can result from a non-competitive slurry experiment.
# Essentially, when a solid is mixed with solvent to create slurry, a saturated solution is formed. The solution is saturated with respect to the polymorphic form dissolved.
# The slurry experiments described herein were performed by exposing excess supplied material (i.e., Form A) to solvents and agitating the resulting suspensions for one week at ambient temperature. The solids were filtered and analyzed by XRD to determine the resulting form(s).
# Solids generated from the solvent based recrystallization panels and otherwise provided samples were analyzed by powder XRD. To mitigate preferred grain effects, a two dimensional detection system was used to collect all the XRD screening data. The two dimensional detector integrates along the concentric Debye cones which helps reduce pattern variation. If bright spots appear in the conical rings, it indicates strong preferred grain effects that can lead to considerable variability in the observed diffraction patterns including changes in peak intensities.
# The analysis entailed cluster analysis and multivariate statistics to group together any patterns that were determined to be statistically the same.
# In the dendrogram, each pair of diffraction patterns is connected via a single node, which corresponds to a dissimilarity value (between 0 and 1) on the y-axis. The higher the connecting node is, the more dissimilar the two patterns are. A threshold dissimilarity value (~0.4 in this case) is used to group similar patterns into clusters, which should correspond to different solid state forms. The cluster plot is a 3D representation of the same analysis.
# [5] = clinical; conditions: for AUC(0-t) / Cmax / Tmax: human
# Method: The reference treatment i fasted condition for all comparisons.
# Eight subjects in Cohort A3 participated in a 2-period treatment design in which they were assessed for the single-dose of drug substance in a Fasted condition and in a Fed condition. Subjects were to receive the same treatment (i.e., either drug substance or placebo) in both Period 1 and Period 2, and thus subjects would receive either two single doses of drug substance or two single doses of placebo during their participation in the study. Fasting state assessments occurred in Period 1 and Fed State assessments in Period 2. It was planned that an approximate 7-day washout would be needed between the Fast and Fed dosing periods. Note that PD assessments were not performed for the food effect Cohort A3.
# Note that PD assessments were not performed for the Food Effect cohort.
# For Part A Cohort A3, assessment of the food-effect was performed for the following PK parameters: • AUC0-last • Cmax • AUC0-inf
# [6] = system: human μ-opioid receptor; conditions: G-protein signaling over β-arrestin signaling
# Description: Applying ^19F NMR, one can measure the quantity of G-protein signaling conformation, as well as that of β-arrestin signaling conformation, of the μ-opioid receptor as induced by an agonist.
# [7] = Panel: Anti-solvent addition, 15 experiments
# [8] = Panel: Cooled to −20° C., single solvent, 12 experiments
# [9] = Panel: Fast evaporation, binary solvent, 13 experiments
# [10] = Panel: Fast evaporation, single solvent, 65° C., 14 experiments
# [11] = Panel: Fast evaporation, single solvent, ambient, 24 experiments
# [12] = Panel: Non-competitive slurries, 15 experiments
# [13] = Total of all panels, 100 experiments
# [14] = 120 mg DS (Fed), single oral dose, plasma, N = 6
# [15] = 120 mg DS, Fed versus Fasted, n = 6
smiles,measurement,setting,value
"CN(C)C[C@H]1CN(CCc2ccsc2)CC[C@]1(O)c1cccc(C(N)=O)c1 [Compound I, 3-(3S, 4R)-3-((dimethylamino)methyl)-4-hydroxy-1-(2-(thiophen-3-yl)ethyl)piperidin-4-yl-benzamide]",NOAEL,[1],60 mg/kg/day and 33.3 mg/kg
same,NOAEL HED for 50 kg subject,[2],1665 mg
same,No. of experiments giving Amorphous Form,[3],0
same,No. of experiments giving Form A,[3],7
same,No. of experiments with No solid recovered,[3],0
same,No. of experiments giving Amorphous Form,[4]; [7],0
same,No. of experiments giving Form A,[4]; [7],9
same,No. of experiments with No solid recovered,[4]; [7],6
same,No. of experiments giving Amorphous Form,[4]; [8],0
same,No. of experiments giving Form A,[4]; [8],0
same,No. of experiments with No solid recovered,[4]; [8],12
same,No. of experiments giving Amorphous Form,[4]; [9],1
same,No. of experiments giving Form A,[4]; [9],9
same,No. of experiments with No solid recovered,[4]; [9],3
same,No. of experiments giving Amorphous Form,[4]; [10],2
same,No. of experiments giving Form A,[4]; [10],4
same,No. of experiments with No solid recovered,[4]; [10],8
same,No. of experiments giving Amorphous Form,[4]; [11],6
same,No. of experiments giving Form A,[4]; [11],1
same,No. of experiments with No solid recovered,[4]; [11],17
same,No. of experiments giving Amorphous Form,[4]; [12],0
same,No. of experiments giving Form A,[4]; [12],13
same,No. of experiments with No solid recovered,[4]; [12],2
same,No. of experiments giving Amorphous Form,[4]; [13],9
same,No. of experiments giving Form A,[4]; [13],43
same,No. of experiments with No solid recovered,[4]; [13],48
same,% of Total experiments giving Amorphous Form,"[4]; all panels, 100 experiments",9%
same,% of Total experiments giving Form A,"[4]; all panels, 100 experiments",43%
same,% of Total experiments with No solid recovered,"[4]; all panels, 100 experiments",48%
same,"GLSM ratio (90% CI) fed/fasted, AUC0-last",[5]; 120 mg,"0.801 (0.688, 0.933)"
same,"GLSM ratio (90% CI) fed/fasted, Cmax",[5]; 120 mg,"0.450 (0.238, 0.852)"
same,reduction of AUC0-last by food,[5]; 120 mg,approximately 20%
same,reduction of peak concentrations by food,[5]; 120 mg,approximately 55%
same,"Tlast (time of last measurable concentration), Median",[5]; [14],48.0 h
same,"Tlast, Max",[5]; [14],48.0 h
same,"Tlast, Min",[5]; [14],36.0 h
same,"Tmax, Max",[5]; [14],6.02 h
same,"Tmax, Min",[5]; [14],1.00 h
same,"AUC0-last, Fed versus Fasted Ratio of GLSMs",[5]; [15],0.801
same,"Cmax, Fed versus Fasted Ratio of GLSMs",[5]; [15],0.450
same,mean concentrations measurable through,[5]; 120 mg fed,48 h
same,AUC(0-t),"[5]; plasma, oral, 120 mg, AUC0-last (zero to 24 hours postdose), GLSM, 120 mg DS (Fasted), n = 6",202 ng·h/mL
same,AUC(0-t),"[5]; plasma, oral, 120 mg, AUC0-last (zero to 24 hours postdose), GLSM, 120 mg DS (Fed), n = 6",162 ng·h/mL
same,Cmax,"[5]; plasma, oral, 120 mg, GLSM (geometric least squares mean), 120 mg DS (Fasted), n = 6",81.9 ng/mL
same,Cmax,"[5]; plasma, oral, 120 mg, GLSM (geometric least squares mean), 120 mg DS (Fed), n = 6",36.9 ng/mL
same,Tmax,"[5]; plasma, oral, 120 mg, individual Tmax range, with food",1 to 6 h
same,Tmax,"[5]; plasma, oral, 120 mg, individual Tmax range, without food",2 to 3 h
same,Tmax,"[5]; plasma, oral, 120 mg, median Tmax, with food",2.6 h
same,Tmax,"[5]; plasma, oral, 120 mg, median Tmax, without food",2.3 h
same,AUC(0-t),"[5]; plasma, po, 120 mg, AUC0-last (zero to 24 hours postdose), Mean, 120 mg DS (Fed), single oral dose, N = 6",166 ng·h/mL
same,AUC(0-t),"[5]; plasma, po, 120 mg, AUC0-t (zero to the last quantifiable concentration), Mean, 120 mg DS (Fed), single oral dose, N = 6",204 ng·h/mL
same,Cmax,"[5]; plasma, po, 120 mg, Mean, 120 mg DS (Fed), single oral dose, N = 6",45.2 ng/mL
same,Tmax,"[5]; plasma, po, 120 mg, Tmax, Median, 120 mg DS (Fed), single oral dose, N = 6",2.58 h
same,signaling pathway selectivity,[6],extremely cell-signaling-pathway-selective μ-opioid agonist
